Source: patent publication US20150044305A1, “[…] NITRIC OXIDE FOR TREATING RESPIRATORY DISEASES” (Advanced Inhalation Therapies (AIT) Ltd., priority 2012, published 2015)

Columns and labels:
[1] = test system: human respiratory syncytial virus (rgRSV30); assay: RSV plaque assay after 30 minutes exposure to 160 ppm gNO; format: cell-based; settings: single exposure of 30 minutes to 160 ppm gNO; for reduction of virus viability (factor): vs ambient air
Experimental: The efficacy of treating viral infection by respiratory syncytial virus by the methods presented herein was tested by exposure for 30 minutes of human respiratory syncytial virus (rgRSV30) to a gas mixture containing 160 ppm nitric oxide, using standard plaque assay as described hereinabove.
FIGS. 3A-D present the data obtained in the experiment using tissue culture samples harboring human rgRSV30, coupled to a green fluorescent protein, wherein the control experiment the samples were exposed to a ambient air (data not shown), and the tested samples having a starting viral level of 2000 PFU (FIG. 3A), 1000 PFU (FIG. 3B) and 500 PFU (FIG. 3C), were exposed to 160 ppm gNO for 30 minutes, whereas FIG. 3D presents a comparative bar plot comparing the control to test results.

methemoglobin = assay: Phase I safety study: methemoglobin (SpMet) by pulse oximeter; format: in vivo, human
Experimental: (§1) After obtaining informed consent, treatment was initiated within 5 days of enrollment. Subjects were housed in a hospital ward and received 160 ppm gNO for 30 minutes every four hours (Q4 h), five times a day, for five consecutive days by inhalation. Subjects returned for follow-up evaluations 3, 7 and 21 days after the final gNO administration. Subject safety was determined by monitoring vital signs, methemoglobin levels, lung function, blood chemistry, hematology, prothrombin time, inflammatory cytokine/chemokines levels and endothelial activation.
(§2) The levels of gNO, NO2, O2 and methemoglobin were monitored during the administration of gNO. The target gas mixture was 160 ppm gNO with a nitrogen dioxide (NO2) level of less than 5 ppm and an oxygen (O2) level ranging from 21% to 25%. Inspiratory NO, NO2 and O2 levels were continuously monitored by sampling from the mouthpiece sample port located about 6 millimeters from the mouth of the subject with an AeroNOx (Pulmonox, AB, Canada) NO, NO2 and O2 electrochemical analyzer. Delivery safety was determined by the number of occasions that NO2 exceeded 5 ppm, gNO exceeding 10% variation and O2 dropping below 20% during gNO administration. A commercially available noninvasive pulse oximeter (Rad 57, Masimo Corporation, USA) was used to measure saturation levels at the periphery of methemoglobin (SpMet).
(§3) These parameters were measured continuously during every gNO administration course and for 3.5 hours after the first treatment of the day. Daily serum samples were collected and frozen at −80° C. and the serum […] level was measured using the Griess reagent.

[2] = Phase I safety study: oxygen saturation (SpO2) by pulse oximeter; format: in vivo, human
Experimental: as §1
Abbreviated physical examination by a registered nurse was carried out each day prior to initiation of treatments on days 1-5. Oxygenation was measured with a pulse oximeter (Rad 57, Masimo Corporation, USA) which was used according to manufacturer's guidelines to measure functional oxygen saturation of arterial hemoglobin (SpO2) and heart rate. These parameters were measured continuously during every gNO administration and for 3.5 hours after the first treatment of the day.

[3] = Phase I safety study: serum nitrite/nitrate by Griess reagent; format: in vivo, human; settings: during the trial, 160 ppm gNO
Experimental: as §1, §3

[4] = Phase I safety study: pulmonary function tests; format: in vivo, human
Experimental: as §1
Subjects underwent full pulmonary function tests (PFT), including lung diffusing capacity (DLCO) by a trained technician utilizing a calibrated pulmonary function system (Jaeger MasterScreen, VIASYS Healthcare, USA) on screening and days 2, 8, 12 and 26. Spirometry test (Microloop by Micro Medical, England) was performed on days 1, 3 and 4. Effect of gNO on lung function and DLCO was determined by changes from baseline, treatment days and follow up days.

inflammatory cytokines = assay: Phase I safety study: plasma cytokine levels by cytokine bead array; format: in vivo, human; settings: vs baseline
Experimental: as §1
Hematological assessment included a complete blood count and differentials (hemoglobin, hematocrit, red blood cell count, white blood cell count, white blood cell differential, and platelet count) were obtained in order to monitor blood chemistry, hematology and inflammation measurements. The blood chemistry profile included serum creatinine, and liver function tests such as aspartate aminotransferase (AST) serum glutamic oxaloacetic transaminase (SGOT), alkaline phosphatase, and gamma-glutamyl transferase (GGT). The effect of gNO on coagulation was determined by the prothrombin time (PT) and its derived measures of prothrombin ratio (PR) and international normalized ratio (INR). Heparinized plasma was collected at baseline and on days 1, 2, 4, and 5 of gNO administration, and on follow-up days 3, 7 and 21 and frozen at −80° C. Plasma cytokine levels were assessed using the human inflammation cytokine bead array kit (BD Bioscience, Canada). Plasma levels of angiopoietin Ang-1 and Ang-2 were determined by ELISA (R&D Systems, USA).

[5] = Phase I safety study: inspiratory NO2 level during gNO administration; format: in vivo, human; settings: inspired gas, 160 ppm gNO
From the text: as §2

S. aureus (ATCC) = settings: 200 ppm gNO, saline suspension; cited from earlier work
Serracia sp. = settings: 200 ppm gNO, saline suspension; cited from earlier work
Klebsiella sp.#3 = settings: 200 ppm gNO, saline suspension; cited from earlier work
Group B Streptococci = settings: 200 ppm gNO, saline suspension; cited from earlier work
[6] = test system: highly pathogenic Avian Influenza H7N3; settings: cited from earlier work
[7] = continuous delivery of 80 ppm gNO; cited from earlier work
Pseudomonas aeruginosa = settings: inhaled, intermittent 30 minute exposures, 160 ppm gNO; cited from earlier work
[8] = 160 ppm gNO 30 minutes, five times a day, five days
[9] = vs baseline during the course of the study

## [N]=O [gNO, nitric oxide]
[1]; starting 500 PFU
  viral viability: substantially nullified
[1]; starting 1000 PFU
  reduction of virus viability (factor): ~10
[1]; starting 2000 PFU
  reduction of virus viability (factor): ~10
methemoglobin; 3, 7 and 21 days after the final exposure to gNO
  residual increase in SpMet at follow-up: did not show any residual increase
methemoglobin; [8]
  all 930 recorded methemoglobin percent levels (SpMet): < 5%
methemoglobin; 160 ppm gNO, p<0.001
  SpMet increase between pretreatment and post treatment: about 1%
methemoglobin; after 160 ppm gNO administration
  time for SpMet to return to baseline: 3.5 h
methemoglobin; after five daily treatments for five consecutive days
  accumulative or lingering effect on SpMet: no accumulative or lingering effect
methemoglobin; at the end of the 160 ppm gNO treatment
  highest SpMet: 2.5%
methemoglobin; single 30 minutes treatment course, 160 ppm gNO, ten individuals
  average increase of SpMet: 0.9%
[2]; [8]
  lowest observed SpO2: 93%
[2]; during or after gNO administration
  incidences of hypoxemia (less than 85% SpO2): No sudden incidences of hypoxemia
[2]; not significant statistically nor clinically
  SpO2 levels over time between pretreatment and post treatment: decreased slightly
[3]
  serum nitrite/nitrate levels vs baseline: no significant differences
[4]; during and after gNO administration
  pulmonary function tests: did not reveal any abnormalities
[4]; vs baseline
  DLCO: did not change from baseline
  forced vital capacity (FVC): did not change from baseline
  residual volume (RV): did not change from baseline
  total lung capacity (TLC): did not change from baseline
[4]; [9]
  FEV1: did not differ from baseline
  maximum mid-expiratory flow (MMEF): did not differ from baseline
Inflammatory cytokines
  cytokine level of IL-1b: unaffected
  cytokine level of IL-6: unaffected
  cytokine level of IL-8: unaffected
  cytokine level of IL-10: unaffected
  cytokine level of IL-12p70: unaffected
  cytokine level of TNF: unaffected
[5]
  highest NO2 level recorded during the treatments: 2.8 ppm
S. aureus (ATCC)
  LD100: 4 h
  Latent Period: 3 h
  −2.5 Log10 (hours): 3.3 hours
Serracia sp.
  LD100: 6 h
  Latent Period: 4 h
  −2.5 Log10 (hours): 4.9 hours
Klebsiella sp.#3
  LD100: 6 h
  Latent Period: 3 h
  −2.5 Log10 (hours): 5.1 hours
Group B Streptococci
  LD100: 2 h
  Latent Period: 1 h
  −2.5 Log10 (hours): 1.5 hours
[6]
  viral replication and infectivity: reduced not only viral replication but also their infectivity
[7]
  subjects with SpMet exceeding 7%: 35%
Pseudomonas aeruginosa
  pulmonary bioburden and leukocyte infiltration: effective to reduce the pulmonary bioburden and leukocyte infiltration
